# Source: patent publication US10624917B2, “Compositions and methods useful for treating or preventing liver diseases or disorders, and promoting weight loss” (YALE UNIVERSITY, priority 2014, dated 2020)
# Assays:
# [1] = system: Il1b and other genes in PECs; assay: Quantitative real-time RT-PCR gene expression in PECs; type: cell-based, mouse; details: for ability to supersede LPS tolerance for TIMP-1, VEGF and GLUT-1 gene expression / expression level of IL6 / expression level of Il1b / expression level of Il4: LPS primed PECs; for expression level of IL6 / expression level of Il1b / expression level of Il4: over 6 and 24 hours; for Il1b mRNA expression: PECs pretreated with LPS for 16 hours (LPS tolerant)
# Experimental: (§1) FIGS. 3A-3I illustrate the finding that adenosine supersedes LPS induced tolerance and increases IL-1β production by upregulating transcription of pro-IL-1β via cAMP-PKA pathway. PECs were used in all of the following experiments. FIG. 3A: Primed (pri) with LPS (100 ng/ml) for 16 hours followed by stimulation (stim) with LPS (100 ng/ml), or NECA (10 μM) or CGS21680 (10 μM) in the presence or absence of LPS (100 ng/ml) for 6 hours. FIG. 3B: Treated with forskolin for 6 hours as indicated doses with and without LPS priming FIG. 3C: Treated with or without NECA (10 μM), CGS21680 (10 μM) or db-cAMP (200 μM) for 6 hours. FIG. 3D: LPS primed and treated with NECA or CGS21680 in the presence and absence of SQ22536, H89 and PKi. FIG. 3E: Primed with LPS for 16 hours and treated with ATP for 20 min, followed by CGS 21680 in the presence or absence of the adenylyl cyclase and PKA inhibitors SQ22536 and H-89. FIG. 3F: Primed with LPS and treated with or without NECA (10 μM) or db-cAMP (200 μM) for 6 hours. FIG. 3G: Treated with or without CGS21680 (10 μM) for 3 hours, and transcription was stopped by adding […] actinomycin D, and RNA samples collected at indicated times-points. FIG. 3H: LPS primed PECs obtained from wild type or A2AR-cKO mice were stimulated with NECA (10 μM) for 6 hours. The cells were harvested and RNA isolated after each treatment and the gene expression of Il1b and other genes as indicated quantified by real-time PCR using specific primers. FIG. 3I: Primed with LPS for 16 hours and treated with ATP for 20 min, followed by CGS 21680 in the presence or absence of SQ22536 or H-89 Immunoblot analysis of the proIL-1β caspase-1 in cell lysate was performed by specific […] and anti caspase-1 p10 antibodies (FIGS. 3C, 3E-3F, 3I). Data are expressed as the mean±SD from three independent experiments Immunoblots shown are representative results from at least three independent experiments. *p<0.05 determined by Student's t-test.
# FIGS. 9A-9H illustrate changes in expression of cytokines and tissue repair genes in peritoneal macrophages in response to adenosine agonists. LPS naive or LPS primed PECs were stimulated with LPS (100 ng ml^−1), CGS21680 (10 μM) or NECA (10 μM) at different time points as indicated. The cells were harvested and RNA isolated after each treatment, and the gene expression of ProIL-1β (Il1b) (FIG. 9A), IL-6 (Il6) (FIG. 9B), IL-4 (Il4) (FIG. 9C), TNF-α (tnfa) (FIG. 9D), TIMP-1 (Timp1) (FIG. 9E), VEGF (vegf) (FIG. 9F), PGK-1 (Pgk1) (FIG. 9G), GLUT-1 (Slc2a1) (FIG. 9H) quantified by real-time PCR using each specific gene primer set as listed. Data are expressed as the mean±SD from three independent experiments. *p<0.05 determined by Student's t-test.
# Total RNA was extracted using TRIZOL reagent (Invitrogen), and cDNA was generated with an oligo (dT) primer and the Superscript II system (Invitrogen, USA) followed by analysis using LightCycler 480 system (Roche). q-PCR was performed for Il1b using commercial primer-probe sets (Applied Biosystems Inc.) with DNA master Mix (Roche). Expression of GAPDH was used to standardize the samples, and the results were expressed as a ratio relative to control; q-PCR was performed for tnfa, 116, Txnip, Nlrp3, Hif1a, Timp1, using LightCycler 480 SYBR Green I master mix (Roche). Results were normalized based on the expression of β-actin.
# [2] = system: active caspase-1 / pro-IL-1β in PECs; assay: Western blot of caspase-1 and pro-IL-1β in PECs; type: cell-based, mouse; details: for up-regulation of Pro-IL-1β: 6 hours, FIG. 3C
# Experimental: FIGS. 2A-2H illustrate the finding that adenosine mediates increase in IL-1β via the A2A receptor and amplifies signal 1 and signal 2 pathways. FIG. 2A: LPS primed PECs were treated with NECA (10 μM) in the presence or absence of […] different adenosine receptor antagonists for A1 (DPCPX, 10 nM), A2A (ZM 241385, 10 μM), A2B (MRS1706, 10 nM), A3 (MRS1523, 5 μM), or their combinations for 1 hour, and pulsed with ATP for 20 min. FIGS. 2A-2B: A2A receptor specific agonist (CGS21680) and antagonist ZM 241385 increase and block IL-1β production respectively. […] FIG. 2D: PEC's from A2A receptor deficient cells have low IL-1β production, which is not increased by NECA and CGS 21680. FIG. 2E: CGS21680 increases induction of Il1b mRNA expression, and this was decreased in A2A receptor deficient cells. FIG. 2F: Loss of the A2A receptor in macrophages results in much lower levels of Il1b protein A expression in response to LPS. FIG. 2G: CGS21680 and […] increases and decreases production of cleaved caspase-1, respectively. FIG. 2H: The production of cleaved caspase-1 is decreased in A2A receptor deficient macrophages. Data are expressed as the mean±SD from at least three independent experiments Immunoblots shown are representative results from at least three independent experiments. p<0.05 determined by Student's t-test.
# as §1
# Liver tissue lysates or PECs were lysed in RIPA buffer (10 mM phosphate buffer pH 7.4, 150 mM NaCl, 1% NP-40, 0.5% sodium deoxycholate, 0.1% SDS) supplemented with complete protease inhibitor cocktail (Roche) and 2 mM dithiothreitol. Lysates were resolved in 4-12% Tris-glycine gradient gels (Invitrogen) and transferred to nitrocellulose (Invitrogen) by electro-blotting. The following antibodies were used: rabbit anti-caspase-1 p10 (SC-514, Santa Cruz), goat anti-mouse IL-1β (BAF401, R&D Systems), Rabbit antimouse HIF-1α (NB100-449, Novus Biologicals, Littleton, Colo.).
SMILES,"ability to supersede LPS tolerance for TIMP-1, VEGF and GLUT-1 gene expression [1]",expression level of IL6 [1],expression level of Il1b [1],expression level of Il4 [1],Il1b mRNA expression [1],Il1b transcript stability (rate of loss of Il1b mRNA) ([1]; transcription stopped with actinomycin D),up-regulation of Pro-IL-1β [2],active caspase-1 ([2]; compound alone),active (cleaved) caspase-1 ([2]; in response to LPS/ATP)
CCNC(=O)[C@H]1O[C@@H](n2cnc3c(N)nc(NCCc4ccc(CCC(=O)O)cc4)nc32)[C@H](O)[C@@H]1O [CGS21680],consistent ability,increase,increase,increase,dramatic increase,did not affect transcript stability,induced up-regulation,did not result in detectable active caspase-1,increases
"CCNC(=O)[C@H]1O[C@@H](n2cnc3c(N)ncnc32)[C@H](O)[C@@H]1O [NECA, 5′-(N-ethylcarboxamido) adenosine]",consistent ability,increase,increase,increase,dramatic increase,–,induced up-regulation,–,–
